In patent US20230172913A1, “COMPOUNDS FOR USE IN THE REACTIVATION OF HIV IN LATENT HIV-INFECTED CELLS” (CENTRE NATIONAL DE LA RECHERCHE SCIENTIFIQUE, priority 2020, published 2023):
“And” between values parts separate entries of the source, which are not always exact repeats. Equal entries are not always repeated.

Tests used:
[1] = tested on: latent T-CD4+ lymphocyte cells from HIV-1 patients; experiment: Ex vivo LRA activity on quiescent T-CD4+ cells of HIV-1 patients (p24); assay type: cell-based, human; details: for LRA efficacy compared with BST-1: 50-100 nM, 18-20 h, p24 in supernatant
Procedure: FIG. 5 Ex vivo LRA activity on quiescent T-CD4^+ lymphocyte cells of HIV-1 patients. T-CD4 cells were isolated by negative selection before elimination of activated cells (CD25^+, CD69^+, HLA-DR^+) to obtain quiescent cells which were treated with drugs for 18-20 h to avoid reinfections. The LRA activity of the compounds (2) (C-2) and (3) (C-3) was determined by monitoring the viral protein p24 in the supernatant using a commercial ELISA test improved by the use of a luminescent substrate. The detection limit of p24 was 0.2 pg/ml. The response to BST-1 (10 nM) was set at 100% to allow comparison of LRA efficacy between patients (1 point=1 patient).
The ex vivo LRA activity of the compounds according to the invention was tested on latent T-CD4^+ lymphocyte cells from HIV-1 patients. All 8 patients had been under ART treatment for at least 6 months and their viral load was undetectable. Blood samples (20 ml) were taken (agreement with Montpellier University Hospital, Resp: Dr Edouard Tuaillon). After purification of white blood cells on Ficoll-Hypaque, negative selection of T-CD4^+ cells, elimination of activated T-CD4 cells (CD25^+, CD69^+, HLA-DR^+) (Milenyi kits), quiescent cells were treated with the compounds for 18-20 h to avoid reinfections. An assay p24 was then performed using a luminescent reagent (Luminata forte, Millipore) at the end of the Innotest. The sensitivity of the test thus modified is ˜0.2 pg p24/ml. The response to BST-1 varied between patients from 0.2 to 80 pg/ml.

Tat protein [2] = experiment: Transactivation by Tat in HeLa cells (LTR-firefly/TK-renilla luciferase); assay type: cell-based, HIV-1; details: for transactivation by extracellular Tat relative to control / transactivation by intracellular Tat relative to negative control: 5 μM compound, HeLa, 24 h; for transactivation by extracellular Tat relative to control: 200 nM Tat extra; for transactivation by intracellular Tat relative to negative control: Tat transfected (Tat intra)
Procedure: FIG. 2 Evaluation of the transactivating activity of the Tat protein of HeLa cells in the presence of 5 μM of the compound (2) (C-2) or of the compound (3) (C-3). HeLa cells were transfected with plasmids containing LTR-firefly and TK-renilla. In the Tat intra condition, Tat is co-transfected. 18 h after transfection the compounds (2) or (3) were added (5 μM), as well as 200 nM Tat for the Tat extra condition. The cells are lysed for the luciferase tests 24 hours later. The firefly/renilla ratio obtained under control conditions was set at 100. n=2. Means+/−SEM.**, p<0.01, ***, p<0.001 and ****, p<0.0001 compared to the drug-free control (One-way ANOVA).
For this test, the effect of the molecules on transactivation by the extracellular or intracellular Tat protein was monitored by the activity of two luciferases. On the one hand the Firefly luciferase, which is under the control of a viral promoter LTR dependent on the Tat protein, and on the other hand the Renilla luciferase (internal control), under the control of a Thymidine kinase cellular promoter independent of the Tat protein. Transactivation is expressed by the Firefly/Renilla ratio. All plasmids and the procedure have been described (Mol Biol Cell 15 (2004), 2347).
This series of experiments was carried out in the HeLa line. Cells were transfected with PEImax (Nature Comms 9 (2018) 2251). The drugs and Tat (if Tat extra) were added 18 h after transfection as indicated, and left for 24 h before lysing the cells. The luciferases are then assayed using Promega's Dual-Glo kit and a Tecan SPARK 10M plate reader. Extracellular Tat has the property of being able to enter into the cells.

J-Lat 9.2 latent cells = experiment: LRA activity on J-Lat 9.2 latent cells (GFP, FACS); assay type: cell-based; details: 5 μM, 24 h, GFP fluorescence by FACS
Procedure: FIG. 3A LRA activity of the compounds (1), (2) (3) (C-1, C-2, C-3) and SAHA (histone deacetylase inhibitor) at 5 μM on J-Lat 9.2 latent cells (derived from Jurkats). J-Lat 9.2 have a complete (single) HIV genome with a non-functional Env gene, and a GFP instead of Nef (Symons, J., and al., Retrovirology, 2017. 14(1): p. 2; Jordan, A., and al., The EMBO journal, 2003. 22(8): p. 1868-77). The activation of these viruses can be followed by the production of GFP and therefore by the detection of green fluorescence in the cells, followed by FACS. n=3. Means+/−SEM.**, p<0.01, compared to the drug-free control (One-way ANOVA).
To test the LRA effect of the molecules, JLat9.2 cells were first used. This latent cell line (source: NIH AIDS Reagents Program, NARP) derived from Jurkat cells contains an HIV genome with an inactivated Env gene and a GFP instead of Nef (Retrovirology, 14 (2017) 2). The lifting of latency is accompanied by the emission of fluorescence from GFP. The cells were treated with molecules at 5 μM for 24 h before analysis of the cells with a FACScalibur to determine the % of cells emitting fluorescence. It can be seen in FIG. 3A that the compound (2) at 5 μM has a significant LRA activity, of the order of 20-30% of that of SAHA.

Tat protein [3] = experiment: Transactivation test on primary T-CD4 cells; assay type: cell-based, HIV-1; details: primary T-CD4 cells transfected with Tat, 24 h
Procedure: FIG. 6 Transactivation test on primary T-CD4 cells. Primary T-CD4 cells were isolated from the blood of healthy donors, then they were transfected with plasmids containing Tat, LTR-firefly and TK-renilla. 18 h after transfection different concentrations of the compound (2) (C-2) were added, and the lysed cells for the luciferase tests 24 h later. n=3. Means+/−SEM. *, p<0.05 and ***, p<0.001 compared to the control without C-2 (One-way ANOVA).
To verify this point, a transactivation test was carried out with primary T-CD4 cells. […] The need to use doses 100 times higher on cancerous cells (that is to say 5-10 μM) is due to the cancerization process of these cells.

[4] = target: T1, Tat-TAR transcription complex (Human immunodeficiency virus type 1 group M subtype B, UniProt P69697); experiment: Retardation gel, affinity for Tat-TAR complex; assay type: binding, HIV-1
T1 construct: made in house; host or cells: E. coli
T1 sequence (P69697 whole entry, one chain of several): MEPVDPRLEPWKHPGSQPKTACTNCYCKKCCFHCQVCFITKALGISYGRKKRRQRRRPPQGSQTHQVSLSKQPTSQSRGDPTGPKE
Procedure: FIG. 1A Delay gel showing the migration of TAR RNA which is free or complexed with the Tat protein (Tat/TAR) in the presence of different concentrations (0 to 120 nM) of the compound (2) (C-2). Tat (400 nM) was incubated with 200 nM of TAR-FAM (WT or Abulge) for 1.5 h in the absence or presence of the compound (2), before separation on a 0.5×TBE 8% acrylamide gel, and acquisition of the fluorescence image. The proteins from the gel were then transferred to a nitrocellulose membrane for Tat visualization by Western blot.
FIG. 1B Quantification of the affinity of the compound (2) (C-2) for the Tat-TAR transcription complex. The Tat-TAR fluorescence band of duplicate gels was quantified and the results are shown in the graph (AU, arbitrary units). n=2. Means+/−SEM. *, p<0.05; ***, p<0.001 compared to the control without the compound (2) (One-way ANOVA).
The affinity of the compound (2) for the Tat-TAR complex was studied by retardation gel. […] The fluorescence of the gel is first visualized with a Chemidoc (Biorad) to detect fluorescein (that is to say TAR). […]

latent cell line ACH-2 = experiment: Specificity: HIV-1 production in ACH-2 latent cells with mutated TAR (p24 ELISA); assay type: cell-based; details: compound (2), SAHA 5 μM, BST-1 10 nM
Procedure: Means+/−SEM. ****, p<0.0001 compared to the solvent control (One-way ANOVA).
Once induced, these cells produce infectious virions. For these tests, the viral antigen p24 in the cell supernatant was assayed with the Innotest p24 ELISA kit.

[5] = target: T2, Tat protein (86 residues, isolate BH10) (Human immunodeficiency virus type 1 group M subtype B, UniProt P69697); experiment: Fluorescence polarization binding of compound to recombinant Tat protein; parameters: species or system HIV-1
T2 construct: The recombinant Tat protein (86 residues, isolate BH10); made in house; host or cells: E. coli
T2 sequence (P69697 whole entry): as the sequence (P69697 whole entry, one chain of several) above
Procedure: (§1) The recombinant Tat protein (86 residues, isolate BH10) was produced in E. coli and purified on heparin-Sepharose then by HPLC as described (Mol Biol Cell 15 (2004), 2347). The compound (2) (MolPort) being fluorescent (λex 320 nm; λem 410 nm), the fluorescence polarization technique (Methods Appl. Fluoresc. (2016) 4(2)) and a PTI fluorimeter were used for the study of the binding of said compound (17 nM) to the Tat protein (1-60 μM) in citrate buffer (50 mM citrate; 150 mM NaCl; pH 7.2). A Kd of the order of 5 μM was measured. An identical value (˜4 μM) was obtained by surface plasmon resonance (SPR; Biacore) by passing the compound (2) in citrate buffer over immobilized Tat on a CMS chip.

[6] = tested on: latent OM10.1 cells (promyeloblasts); experiment: LRA activity on OM10.1 latent cells (p24 ELISA); assay type: cell-based; details: 5 μM, p24 in supernatant
Procedure: FIG. 3B LRA activity of the compound (2) (C-2) and SAHA at 5 μM on latent OM10.1 cells (promyeloblasts). These latent cells, after induction, produce infectious viruses which are assayed in the supernatant by ELISA p24. n=2. Means+/−SEM.*, p<0.05 and ***, p<0.001 compared to the control medium alone (One-way ANOVA).
The results for the compound (2) were confirmed using another latent cell line, OM10.1 (promyeloblasts; source NARP; PLoS Pathog. 11 (2015) 1) which produces infectious HIV after induction. It was assayed by the viral antigen p24 (HIV-1 capsid protein) in the supernatant using an ELISA kit (Innotest).

[7] = target: T2, Tat protein (86 residues, isolate BH10); experiment: Surface plasmon resonance (Biacore) on immobilized Tat; assay type: binding, HIV-1
Procedure: as §1

| SMILES | LRA efficacy compared with BST-1 [1] | transactivation by extracellular Tat relative to control (Tat protein [2]) [times] | transactivation by intracellular Tat relative to negative control (Tat protein [2]) [times] | LRA activity (in words) (J-Lat 9.2 latent cells) | concentration sufficient for the LRA effect ex vivo ([1]; latent primary cells) | concentration most effective in activating transactivation by Tat (Tat protein [3]) [nM] | concentration stabilizing the Tat-TAR transcription complex [4] | Kd ([4]; retardation gel, 400 nM Tat, 200 nM TAR, 1.5 h at 25° C.) [nM] | effective concentrations on laboratory cell lines (Tat protein [2]; all the tests on laboratory cell lines (HeLa and That)) [µM] | induction of HIV-1 production (p24) (latent cell line ACH-2) | Kd [5] [µM] | LRA activity relative to that of SAHA [6] [%] | Kd [7] [µM] |
| --- | --- | --- | --- | --- | --- | --- | --- | --- | --- | --- | --- | --- | --- |
| O=C(Nc1ccc(-c2nc3ccccc3[nH]2)cc1)c1cccc(OCc2ccccc2)c1 [(3), N-[4-(1H-1,3-benzodiazol-2-yl)phenyl]-3-(benzyloxy)benzamide] | at least as effective as BST-1 | 108 | 9 | close to that of SAHA |  |  |  |  |  |  |  |  |  |
| COc1ccc(-c2nn3ccnc3s2)cc1NC(=O)c1ccc(OCc2ccccc2)cc1 [(1), 4-(benzyloxy)-N-(5-{imidazo[2,1-b][1,3,4]thiadiazol-2-yl}-2-methoxyphenyl)benzamide] |  |  |  | significant activity |  |  |  |  |  |  |  |  |  |
| COc1cc(C(=O)Nc2cc(-c3nc4ccccc4[nH]3)ccc2C)ccc1OCc1ccc(Cl)cc1 [Compound (2), N-[5-(1H-1,3-benzodiazol-2-yl)-2-methylphenyl]-4-[(4-chlorophenyl)methoxy]-3-methoxybenzamide] | at least as effective as BST-1 | 60 | 3.9 |  | 50 to 100 nM and 50 nM | 30 | 50 to 100 nM and 80 nM | ~80 | ~5 | incapable of inducing the production of HIV-1 | ~5 | ~40 | ~4 |
